Key:
Assay type in all cases: in vivo
Plasmopara viticola = experiment: Plasmopara test (grapevine)/protective; details: grapevine young plants, protective spray, application rate 250 ppm, evaluation 6 days after inoculation; 0% = control, 100% = no infection
Procedure: Plasmopara Test (Grapevine)/Protective [table] To produce an appropriate active ingredient formulation, 1 part by weight of active ingredient is mixed with the specified amounts of solvent and emulsifier, and the concentrate is diluted with water to the desired concentration. To test for protective activity, young plants are sprayed with the active ingredient formulation at the stated application rate. After the spray coating has dried on, the plants are inoculated with an aqueous spore suspension of Plasmopara viticola and then remain in an incubation cabin at approx. 20° C. and 100% relative air humidity for 1 day. Subsequently, the plants are placed in a greenhouse at approx. 21° C. and approx. 90% air humidity for 4 days. The plants are then moistened and placed in an incubation cabin for 1 day.

Alternaria solani = experiment: Alternaria test (tomato)/protective; details: tomato young plants, protective spray, application rate 250 ppm, evaluation 3 days after inoculation; 0% = control, 100% = no infection
Procedure: Alternaria Test (Tomato)/Protective [table] To produce an appropriate active ingredient formulation, 1 part by weight of active ingredient is mixed with the specified amounts of solvent and emulsifier, and the concentrate is diluted with water to the desired concentration. To test for protective activity, young plants are sprayed with the active ingredient formulation at the stated application rate. After the spray coating has dried on, the plants are inoculated with an aqueous spore suspension of Alternaria solani. The plants are then placed in an incubation cabin at approx. 20° C. and 100% relative air humidity.

Venturia inaequalis = experiment: Venturia test (apple)/protective; details: apple young plants, protective spray, application rate 250 ppm, evaluation 10 days after inoculation; 0% = control, 100% = no infection
Procedure: Venturia Test (Apple)/Protective [table] To produce an appropriate active ingredient formulation, 1 part by weight of active ingredient is mixed with the specified amounts of solvent and emulsifier, and the concentrate is diluted with water to the desired concentration. To test for protective activity, young plants are sprayed with the active ingredient formulation at the stated application rate. After the spray coating has dried on, the plants are inoculated with an aqueous conidia suspension of the apple scab pathogen Venturia inaequalis and then remain in an incubation cabin at approx. 20° C. and 100% relative air humidity for 1 day. The plants are then placed in a greenhouse at about 21° C. and a relative air humidity of approx. 90%.

Phytophthora infestans = details: tomato young plants, protective spray, application rate 250 ppm, evaluation 3 days after inoculation; 0% = control, 100% = no infection

| SMILES | Efficacy (%) (Alternaria solani) | Efficacy (%) (Venturia inaequalis) | other results |
| --- | --- | --- | --- |
| Cn1c(=O)c2sc3c(=O)n(C)c(=S)c3sc2c1=O [drawing 23] | – | – | Efficacy (%) (Plasmopara viticola): 83% |
| Cn1c(=O)c2sc3c(=O)n(C)c(=S)c3sc2c1=O [drawing 26] | 95% | – | – |
| Cn1c(=O)c2sc3c(=O)n(C)c(=S)c3sc2c1=O [drawing 24] | – | 99% | – |
| Cn1c(=O)c2sc3c(=O)n(C)c(=S)c3sc2c1=O [drawing 22] | – | – | Efficacy (%) (Phytophthora infestans): 72% |
| Cn1c(=O)c2sc3c(=S)n(C)c(=O)c3sc2c1=S [drawing 27] | 76% | – | – |
| Cn1c(=O)c2sc3c(=S)n(C)c(=O)c3sc2c1=S [drawing 25] | – | 71% | – |
